Article PMC8070745, “FEN1 Blockade for Platinum Chemo-Sensitization and Synthetic Lethality in Epithelial Ovarian Cancers” (Cancers, 2021)

Legend:
Assay type in all cases: cell-based, human
PEO4 spheroids = assay: 3D spheroid assay, PEO4; conditions: FEN1i/cisplatin combination vs cisplatin or FEN1i monotherapy
Description: (§1) with ice cold PBS and fixed in 70% ethanol for 1h at -20°C. After removal of the fixative solution by centrifugation, cells were stained with 2 µg/ml of phospho-Histone (γH2AX) Ser139 (16202A, Millipore, UK) to detect DSBs.
(§2) Cell cycle progression: Cells were treated with 20 µg/ml RNase A (12091021, Invitrogen) and then 10 µg/ml Propidium Iodide (P4170, Sigma Aldrich) was added to determine the cell cycle distribution. The samples were analysed on a Beckman-Coulter FC500 flow cytometer using a 488nm laser for excitation and emission data for PI collected using a 620nm bandpass filter (FL3) and a 525nm bandpass filter (FL1) for FITC-anti-phospho-Histone H2A.X.
Apoptosis detection: Annexin V detection kit (556547, BD Biosciences) was used to quantify apoptotic cells. Briefly, cells were trypsinized, washed with PBS and the cellular pellet was re-suspended in Anexin Binding Buffer (1×). […] All the samples were analysed on a Beckman-Coulter FC500 flow cytometer. The percentage of apoptotic cells was determined (late apoptotic = FITC-Annexin V positive, PI positive early apoptotic = FITC-Annexin V positive, PI negative; live cells = FITC-Annexin V negative, PI negative) and compared for untreated and treated samples. […]
To quantify cell viability, LIVE/DEAD Viability/Cytotoxicity Kit (L3224, Thermo Fisher Scientific) was used. […] At least 10 spheroids were measured. […]

POLβ KO A2780cis cells [1] = assay: Cell cycle progression, POLβ KO A2780cis; conditions: FEN1i-treated
Description: as §1
as §2, with “H2A.X. […]” for “H2A.X.”
Graphical representation and statistical analysis was performed in GraphPad Prism 7 (GraphPad, La Jolla, USA).
3D Spheroid assays: A2780_control and A2780 FEN1_ KO as well as A2780cis_control and A2780cis FEN1_ KO cells were seeded at 4500 cells/cm2 density in ultra-low attachment 6-well plates (174932, Thermo Fisher Scientific) and cultured in 3D Tumorsphere Medium (C28070, PromoCell, UK) at 37°C in a 5% CO2 atmosphere. Cells were keep in culture for 7-10 days, toping up with fresh medium every two days until spheroids structures were formed.

[2] = test system: XRCC1 deficient A2780cis cells; assay: FEN1 inhibitor cytotoxicity, XRCC1 deficient A2780cis; conditions: vs A2780cis control
POLβ KO A2780cis cells [3] = assay: Clonogenic assay, POLβ KO A2780cis; conditions: vs POLβ proficient A2780cis
Description: Clonogenic assay: In the clonogenic assay (colony formation assays), 32 cells/cm2 were seeded in 6-well plates and left at 37°C in a 5% CO2 atmosphere. Cisplatin (5µM) and/or FEN1i (10µM) and/or Importazole (5 µM, Selleckem, S8446 ) were added at the indicated concentrations and the plates were left at 37 °C in a 5% CO 2 atmosphere for 14 days. Later, the plates were washed with PBS, fixed and stained with a crystal violet, acetic acid and methanol solution and colonies were counted. […]

## Cc1csc2c1c(=O)n(O)c(=O)n2-c1ccccc1 [PTPD, 3-hydroxy-5-methyl-1-phenylthieno [2,3 d]pyrimidine-2,4(1H,3H)-dione]
PEO4 spheroids
  cell death in 3D spheroids: increased cell death
POLβ KO A2780cis cells [1]
  cell cycle effect: G2/M cell cycle arrest
[2]
  sensitivity to FEN1 inhibitor: did not observe any increased sensitivity
POLβ KO A2780cis cells [3]
  sensitivity to FEN1 inhibitor: more sensitive to FEN1 inhibition
